Experimental data from patent publication US8536214B2, “Indane derivatives as AMPA receptor modulators” (priority 2008, dated 2013).

Target: T1, AMPA (GluR1) receptor (Homo sapiens, UniProt P42261)
T1 construct: expressed in transfected cells; host or cells: HEK cells (HEK.GluR1(i)), kept under hygromycin selection
Experiment: Ca2+ influx fluorescence assay (FLEXstation, Fluo-3)
Type: cell-based
Details: HEK.GluR1(i) cells, glutamate +/- test compound, Ca2+ influx measured with fluo3; read-out: EC50, positive modulation of the AMPA receptor
From the text: The compounds in this invention may be tested using a biological assay which measures Ca^2+ influx mediated through positive modulation of the AMPA (GluR1) receptor using standard techniques in the art such as, but not limited to, a FLEXstation (manufactured by Molecular Devices, Sunnyvale, Calif.). An optical readout using fluorescent probes is employed to measure ion channel dependent changes in intracellular ion concentration or membrane potential. The assay utilises the Ca^2+ conductance of functional homomeric GluR1(i) AMPA receptors to generate glutamate-dependent Ca^2+ responses. Influx of Ca^2+ through the ion channel is measured indirectly through an increase in intracellular Ca^2+ levels using the calcium sensitive dye such as, but not limited to, Fluo-3 (Molecular Devices, Sunnyvale, Calif.) in FLEXstation. A positive AMPA receptor modulator, in the presence of glutamate, will result in an influx of Ca^2+ through the ion channel which can be measured indirectly through an increase in intracellular Ca2+ levels using the calcium sensitive dye Fluo-3 in FLEXstation.
HEK.GluR1(i) cells were maintained in DMEM supplemented with 10% fetaclone II, 1% non-essential amino acids and 150 μg/mL hygromycin, at 37° C./5% CO2. […]

T1 sequence (P42261 19-906 isoform P42261-2 limits assumed, species assumed): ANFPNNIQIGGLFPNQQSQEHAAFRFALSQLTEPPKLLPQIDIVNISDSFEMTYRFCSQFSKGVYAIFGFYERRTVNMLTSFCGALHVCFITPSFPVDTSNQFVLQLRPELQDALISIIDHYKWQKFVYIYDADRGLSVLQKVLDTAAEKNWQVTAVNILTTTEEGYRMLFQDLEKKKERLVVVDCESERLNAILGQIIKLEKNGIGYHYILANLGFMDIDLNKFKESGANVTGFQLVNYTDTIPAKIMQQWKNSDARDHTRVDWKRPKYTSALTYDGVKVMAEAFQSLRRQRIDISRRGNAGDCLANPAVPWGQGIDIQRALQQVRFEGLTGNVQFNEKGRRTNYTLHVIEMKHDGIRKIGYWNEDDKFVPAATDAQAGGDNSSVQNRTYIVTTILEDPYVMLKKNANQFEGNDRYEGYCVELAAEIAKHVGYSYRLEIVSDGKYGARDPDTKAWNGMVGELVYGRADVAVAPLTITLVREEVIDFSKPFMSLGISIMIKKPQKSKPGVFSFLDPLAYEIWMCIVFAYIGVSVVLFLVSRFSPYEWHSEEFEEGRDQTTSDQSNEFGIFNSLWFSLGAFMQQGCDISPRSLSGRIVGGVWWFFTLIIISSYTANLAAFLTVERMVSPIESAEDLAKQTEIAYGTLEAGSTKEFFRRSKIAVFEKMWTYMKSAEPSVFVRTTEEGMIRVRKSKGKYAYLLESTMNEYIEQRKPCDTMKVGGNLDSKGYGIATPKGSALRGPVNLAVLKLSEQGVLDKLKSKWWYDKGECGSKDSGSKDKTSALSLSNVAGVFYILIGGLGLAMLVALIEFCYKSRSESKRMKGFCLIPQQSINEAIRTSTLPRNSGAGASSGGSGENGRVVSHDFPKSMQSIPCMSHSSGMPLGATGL

EC50: 2500 nM
SMILES: O=S(=O)(N[C@H]1Cc2ccc(Cn3cc(CO)c(C(F)(F)F)n3)cc2C1)c1ccco1 [Example 18, (S)—N-(5-((4-(hydroxymethyl)-3-(trifluoromethyl)-1H-pyrazol-1-yl)methyl)-2,3-dihydro-1H-inden-2-yl)furan-2-sulfonamide]
